This assay deals with Plasmodium falciparum. As to the kind of experiment: GSK_TCMDC: Inhibition of Plasmodium falciparum 3D7 in whole erythrocytes, using parasite LDH activity as an index of growth. The class given is functional, organism-based. The note with it: Plasmodium falciparum, 3D7.

For the molecule `NC(=O)c1cccc(Nc2nccc(Nc3ccc4[nH]c(-c5ccccc5)cc4c3)n2)c1`, the XC50 is 776 nM.

With `OC1=C2C(=Nc3ccccc3SC2c2ccccc2)c2ccccc21` (configuration not stated), the XC50 was determined as 325 nM.

Turning to `O=C(Nc1ccccc1)NC1CCN(CCC2(c3ccc(Cl)c(Cl)c3)COCN(C(=O)c3ccccc3)C2)C1` (configuration not stated), the XC50 came out at 880 nM.

As for `Cc1cccc2nc(-c3cccc(-c4ccc(NC(=O)Cc5ccon5)cc4)c3)[nH]c12`, the XC50 worked out at 1090 nM.

Turning to `Cc1cc(C)c(NC(=O)NC2CCN(CCCCCNC(=O)/C=C/c3ccc(Cl)c(Cl)c3)C2)c(C)c1` (configuration not stated), the XC50 came to 186 nM.

Take `COc1ccc(CN2CCC(NCc3cccc([N+](=O)[O-])c3)CC2)cc1`: the XC50 worked out at 910 nM.

With `N#Cc1ccc(CN2CCCN(c3ccc(NC(=O)c4ccc(F)cc4)cc3)CC2)cc1`, the XC50 amounted to 1280 nM.

In the case of `O=C(Nc1cccc(CN2CCCN(Cc3ccsc3)CC2)c1)c1ccc(Cl)c(Cl)c1`, the XC50 is 885 nM.

In turn, `O=c1ccc(CNc2nc(NCCc3ccccc3)nc3cc(Cl)ccc23)c[nH]1` yielded an XC50 of 298 nM.

In turn, `C[C@@H](N/C(=N\c1ccc(-c2ccccc2)cc1)Nc1ccc(C#N)cc1O)c1ccc(Br)cc1` yielded an XC50 of 699 nM.

`Cn1c(-c2ccccc2)cc2c3c(N)nc(N)nc3ccc21` showed an XC50 of 888 nM.

The molecule `Nc1nccc(-c2ccc3c(/C=C/c4ccccc4)cnc(N)c3c2)n1` returned an XC50 of 621 nM.

The molecule `OC(CNc1ccnc(Nc2cccc(Cl)c2)n1)c1ccccc1C(F)(F)F` (configuration not stated) yielded an XC50 of 902 nM.

`COc1cccc2c(N/N=C/c3ccccc3[N+](=O)[O-])cc(C)nc12` had an XC50 of 424 nM.

Take `Clc1cccc(Cl)c1CCNCC1CCN(CC2CCCCC2)CC1`: the XC50 amounted to 212 nM.

`c1ccc(-c2cc(NCc3cccc4ccccc34)c3[nH]ncc3n2)cc1`: the XC50 is 518 nM.

`Oc1ccc(C2CNCCc3c2cc(O)c(OCc2ccccc2)c3Cl)cc1` (configuration not stated) showed an XC50 of 716 nM.

With `CCCCCN1CCCC(NS(=O)(=O)c2ccc(C(=O)Nc3cccc(C(F)(F)F)c3)cc2)C1` (configuration not stated), the XC50 stood at 795 nM.

`COc1ccc(CN2CCC(CN3CC4(OC3=O)c3ccccc3-c3ccccc34)C2)c(O)c1` (configuration not stated) returned an XC50 of 613 nM.

`Cc1noc(C)c1-c1ccc2c(Nc3ccc(Cl)cc3)c(C(N)=O)cnc2c1`: the XC50 came to 826 nM.

Regarding `O=C(/C=C/c1ccc(Cl)c(Cl)c1)NCCCCCN1CC[C@H](NC(=O)c2ccc3c(c2)OCO3)C1`, the XC50 was 942 nM.

`C(=N\Nc1nccc2sc(-c3cccnc3)cc12)/c1ccncc1` returned an XC50 of 213 nM.

In turn, `Cc1cccc(-c2cccc(CNc3nc(NCCc4ccc(O)cc4)nc(N4CCNCC4)n3)c2)c1` gave an XC50 of 1190 nM.

Consider `NCC1CCCN1Cc1cccc(-c2cccc(-c3nc4cc(F)ccc4[nH]3)c2)c1` (configuration not stated), for which the XC50 is 813 nM.

In turn, `CCCOc1ccc(CCCON2C(N)=NC(N)=NC2(C)C)cc1` returned an XC50 of 3.2 nM.

Turning to `CN1CCC(C(=O)Nc2cccc(-c3ccc(-c4nc5cc(F)ccc5[nH]4)cc3)c2)CC1`, the XC50 is 706 nM.

For `COc1cc(C)c(NC(=O)c2cccc3c(=O)c(C)c(-c4ccccc4)oc23)cc1OC`, the XC50 stood at 1630 nM.

In turn, `O=C(N[C@@H](Cc1ccccc1)C(=O)NC1CCCCC1)c1ccc(O)c(-c2ccc(Cl)c(Cl)c2)c1` had an XC50 of 231 nM.

Regarding `Cc1cc(N[C@@H](Cc2ccccc2)C(=O)NCc2cccs2)nc(NCCOc2ccccc2)n1`, the XC50 was 1480 nM.

With `Cc1cc(Nc2ccc(C)c(Cl)c2)n2nc(C(F)(F)F)nc2n1`, the XC50 turned out to be 15.8 nM.

Turning to `Cc1nn(C)c(C)c1CN(Cc1nc(-c2cccc(Oc3ccccc3)c2)oc1C)C1CC1`, the XC50 came out at 392 nM.

In turn, `Cc1cc(=NN=Cc2ccc(F)cc2)c2ccc(C(F)(F)F)cc2[nH]1` had an XC50 of 816 nM.

`O=C(Cn1c(SCc2cccc(F)c2F)cc(=O)c2ccccc21)N(CCn1ccnc1)Cc1ccc(-c2ccc(C(F)(F)F)cc2)cc1` displayed an XC50 of 770 nM.

As to `O=C(Nc1cccc(CN2CCCN(Cc3cccc(F)c3)CC2)c1)c1ccc(Cl)c(Cl)c1`, the XC50 was determined as 923 nM.

`CCN(CC)C(=O)c1cnc(-c2ccccc2)nc1Oc1cccc(Cl)c1` yielded an XC50 of 1160 nM.

Turning to `CC(=O)N(C)/N=C/[C@H](CCc1ccccc1)NC(=O)[C@H](CC(C)C)NC(=O)c1cccc(OCCN2CCOCC2)c1`, the XC50 turned out to be 332 nM.

As to `CCC[C@@H]([C@@H](CC1CCCCC1)C(=O)N[C@H](C(=O)Nc1nccc(N)n1)C(C)(C)C)N(O)C=O`, the XC50 is 528 nM.

The molecule `Cc1ccc(O)c(CN2CCCC(COC(c3ccc(F)cc3)c3ccc(F)cc3)C2)c1` (configuration not stated) gave an XC50 of 715 nM.

For the molecule `CCN(CC)Cc1ccc2c(=O)cc(CCc3cccc(F)c3F)n(CC(=O)N(Cc3ccc(-c4ccc(C(F)(F)F)cc4)cc3)C(C)C)c2c1`, the XC50 turned out to be 782 nM.

`C=C[C@]1(C)C[C@@H](OC(=O)c2cncn(COC)c2=O)[C@]2(C)[C@H](C)CC[C@]3(CCC(=O)[C@H]32)[C@@H](C)[C@@H]1O` showed an XC50 of 878 nM.

Regarding `O=C(CCCCCNC(=O)c1ccc(O)c(-c2ccc(Cl)c(Cl)c2)c1)NCCN1CCOCC1`, the XC50 was determined as 830 nM.

`O=C(/C=C/c1cccc(Cl)c1)Nc1ccc2nc(CN3CCCC3)ccc2c1` registered an XC50 of 255 nM.

For the molecule `Clc1ccc(Nc2nc3ccc(Cl)cc3nc2Nc2ccc(Cl)cc2)cc1`, the XC50 came to 133 nM.

`O=C(C=Cc1ccc(Cl)c(Cl)c1)NCCCCCN1CCC(CCNS(=O)(=O)c2ccc(F)cc2)CC1` gave an XC50 of 1090 nM.

As to `Cc1ccc(NC(=O)c2ccc(CN3CCCN(CCC(C)C)CC3)cc2)cc1C`, the XC50 turned out to be 913 nM.

In the case of `CN1CCC(C(=O)N(Cc2ccc(-c3ccc(CNCCc4ccc(S(C)(=O)=O)cc4)cn3)cc2)C2Cc3ccccc3C2)CC1`, the XC50 was 665 nM.

Consider `CCCCCN1CCCN(Cc2cccc(NC(=O)c3ccc(-c4ccccc4)cc3)c2)CC1`, for which the XC50 turned out to be 697 nM.

In turn, `Cc1cc(Nc2ncc(C#N)c(Nc3ccccc3C(N)=O)n2)ccc1N1CCN(C)CC1` had an XC50 of 8.63 nM.

In turn, `CCCCCN1CCCC1CNS(=O)(=O)c1ccc(C(=O)Nc2cccc(C(F)(F)F)c2)cc1` (configuration not stated) registered an XC50 of 1060 nM.

In turn, `Cc1c2ccncc2c(C)c2c1[nH]c1cc(Cc3ccccc3)c(O)cc12` showed an XC50 of 148 nM.

`Cc1ccc2nc(N(CCCn3ccnc3)C(=O)C=Cc3cccs3)sc2c1`: the XC50 is 1390 nM.

Regarding `CC1(C)N=C(N)N=C(NOCCCCCCONC2=NC(N)=NC(C)(C)N2)N1`, the XC50 was determined as 33.3 nM.

Molecule `CCc1ccc(C2=Nn3c(nnc3-c3cccs3)SC2)cc1` gave an XC50 of 1290 nM.

Molecule `CC1(C)NC(N)=NC(=N)N1OCOc1ccc(Cl)cc1` came in with an XC50 of 4.6 nM.

In turn, `O=C(Nc1ccc(F)cc1F)NC1CCN(CCCCCNC(=O)C2CC2c2ccc(Cl)c(Cl)c2)CC1` (configuration not stated) showed an XC50 of 496 nM.

`CC1(C)N=C(N)N=C(N)N1OCc1cccc(C#N)c1`: the XC50 amounted to 7.93 nM.

For `O=c1n[n+](C2CCCCC2)[n-]o1`, the XC50 is 934 nM.

For `CNC(=O)c1cnc(Nc2ccc(OCC(O)CN(C)C)cc2)nc1Nc1cccc([N+](=O)[O-])c1` (configuration not stated), the XC50 is 617 nM.

Molecule `CN(C)c1ccc(CN2CCCC(CNC(=O)c3ccc(-c4cccc(C(F)(F)F)c4)s3)C2)cc1` (configuration not stated) gave an XC50 of 1200 nM.

On to `Cc1ccc(C[C@@H](C)NC[C@H](O)c2cccc(C(F)(F)F)c2)cc1`, for which the XC50 turned out to be 876 nM.

With `Cc1cccc2nc(-c3ccc(-c4cccc(NC(=O)c5cccc(C(N)=O)c5)c4)cc3)[nH]c12`, the XC50 was found to be 1130 nM.

As to `Cc1ccc2c(O)c([N+](=O)[O-])c(O)nc2c1`, the XC50 turned out to be 422 nM.

In turn, `CC1=C(C(=O)Nc2ccccc2)C(c2ccc([N+](=O)[O-])cc2)n2ncc(C(=O)Nc3ccccc3)c2N1` (configuration not stated) gave an XC50 of 1240 nM.

`O=C(Nc1ccc(S(=O)(=O)N2CCCCC2)cc1)c1cc(-c2ccccc2O)n[nH]1` came in with an XC50 of 846 nM.

Molecule `CCOc1cc(Cc2cnc(N)nc2N)cc(Br)c1OC` came in with an XC50 of 1440 nM.

In turn, `Cc1ccc(O)c(-c2cc(C(=O)Nc3ccc(S(=O)(=O)N4CCCC(C)C4)cc3)[nH]n2)c1` (configuration not stated) came in with an XC50 of 707 nM.

As for `FC(F)(F)c1ccc2nccc(NCc3ccccc3)c2c1`, the XC50 was found to be 1150 nM.

Consider `Cc1cc(NC(=O)c2ccco2)ccc1OC1CCN(Cc2ccccc2)CC1`, for which the XC50 was determined as 531 nM.

As to `CCCN(CCCCCCNCCc1ccc(Cl)cc1)CCc1ccc(O)c(O)c1`, the XC50 was 943 nM.

The molecule `CC(O)C1CCCCN1C(=O)c1ccc(-c2ccc(-c3nc4cc(F)ccc4[nH]3)cc2)cc1` (configuration not stated) showed an XC50 of 435 nM.

Regarding `CC(C)NCc1ccc(-c2ccc(-c3nc4cc(C(F)(F)F)ccc4[nH]3)cc2)cc1`, the XC50 turned out to be 266 nM.

Turning to `O=C(c1cncc(-c2ccccc2)c1)N(Cc1cncn1Cc1ccccc1F)CC1CC1`, the XC50 turned out to be 804 nM.

For the molecule `COc1ccc(Nc2nc(NCc3ccco3)c3ccccc3n2)cc1`, the XC50 is 740 nM.

The molecule `Cc1nc(C)c(-c2ccc(Cl)cc2)c(O)c1I` came in with an XC50 of 674 nM.

Take `CCOC(=O)C(C#N)NC(=O)C=Cc1ccccc1` (configuration not stated): the XC50 turned out to be 804 nM.

Turning to `CCCCCn1c(Sc2ccc(C#N)c([N+](=O)[O-])c2)nnc1-c1ccc(OC)cc1`, the XC50 is 1140 nM.

On to `CC(C)(C)CC(=O)Nc1ccc(Nc2cc(-c3ccncc3)cc3ncc(C(N)=O)cc23)cc1`, for which the XC50 came to 700 nM.

For the molecule `O=C(NC1CCCCC1)N(Cc1cccc(-c2ccc(CNC3CCCC3)cc2)c1)C1CCN(Cc2ccccc2)CC1`, the XC50 was 951 nM.

`CCS(=O)(=O)c1ccc(-c2cnc3[nH]cc(-c4ccc(N)cc4)c3c2)cc1` had an XC50 of 851 nM.

`N=C(N)c1cc(Br)cc(NC(=O)Nc2cc(Br)cc(C(=N)N)c2)c1`: the XC50 was 819 nM.

The molecule `CS(=O)(=O)CCNCc1nc(-c2ccc3ncnc(Nc4ccc(OCc5cccc(F)c5)c(Cl)c4)c3c2)cs1` showed an XC50 of 771 nM.

`CCOc1ccc(-c2nonc2NC(=O)c2ccc(F)cc2)cc1OCC` yielded an XC50 of 327 nM.

`Cc1noc(-c2ccccc2)c1CN1CCCC2(CC(C(=O)NCc3cccc(F)c3F)=NO2)C1` (configuration not stated) displayed an XC50 of 1010 nM.

In the case of `Cc1ccc2c(Cl)c(C(=O)N3CCCc4ccccc43)sc2c1`, the XC50 was 1510 nM.

Molecule `CC(=O)Oc1c(Br)c(C)nc(C)c1-c1ccc(Oc2ccc(OC(F)(F)F)cc2)cc1` returned an XC50 of 131 nM.

`COC(=O)c1ccc(CC(C)NCC(O)c2ccc(C(O)CNC(C)Cc3ccc(C(=O)OC)cc3)cc2)cc1` (configuration not stated) returned an XC50 of 1030 nM.

`O=C(/C=C/c1cccc2ccccc12)NCCCCCN1CCC(c2c[nH]c3ccccc23)CC1`: the XC50 is 1140 nM.
